The source of these data is US9204654B2, “Synergistic combination of a zoxamide compound and zinc pyrithione for dry film protection” (Rohm and Haas Company, priority 2012, dated 2015).

In one assay the test system is Chlorella sp. ATCC 7516. As to the kind of experiment: Algal efficacy test of dry paint film (modified ASTM 5589, 6-well plates). The assay is classed as cell-based. To be noted: 3 weeks; for Total conc: total biocide concentration in paint taken as minimum inhibitory concentration, pass level ≧75% inhibition, for zoxamide the maximum concentration tested, pass not reached. The method, then: (§1) Slurries containing 33% antimicrobial active ingredients (Zoxamide and ZnPT) were post added to a white, acrylic/silicone based outdoor paint free of biocides to give a total active ingredient concentration of 10000 and 1000 ppm respectively. These paints were then diluted with an antimicrobial free acrylic/silicone based paint and mixed to prepare targeted concentrations of antimicrobial compounds for the testing. The total biocides concentrations tested were 125, 250, 500, 1000, 2000 and 5000 ppm. After biocides addition or dilution, the paints were mixed 90 seconds with the horse power shaker (AXEL 75M3372/Agitateur SO-10MI) until uniformity was achieved. Paints containing different antimicrobial compounds at the same levels were mixed together in order to obtain the desired ratio of antimicrobial compounds. After one day, the paints were applied to Schleicher & Schuell filter paper at 280 μm wft and dried for 3 days at room temperature avoiding direct exposure to sunlight. Square discs (1.6 cm×1.6 cm) were cut out from each panel and were used as the substrate for algal efficacy tests. This sample size allowed for an agar border when the sample disc was placed into the well of the test plate.
(§2) Algal efficacy was tested according to modified ASTM 5589 which is a standard accelerated test method for determining resistance of various coatings (including paints) to algal defacement. To accommodate for high-throughput screening, this method was scaled down from petri dishes to 6-well plates. Bold Modified Basal Freshwater Nutrient Solution was used as growth medium. A single coated filter paper coupon was placed with a pair of sterile forceps at the center of the agar plug (on top) with the painted surface facing upwards. Algal inoculums were prepared by mixing equal concentrations (1×10^6 cfu/ml) and equal volumes of exponentially growing algae cultures.
(§3) Each well that contains a tested coupon was inoculated with 1750 μl of algal suspensions (1×10^6 cfu/ml) making sure that the whole surface (paint film as well as the agar surrounding it) was evenly covered. The plates were incubated at room temp (21° C.-25° C.) with cyclic exposure to light and dark phases, for a period of three weeks.
(§4) At the end of the three week incubation period, the samples were scored for percent inhibition regarding visible algal growth compared to the blank sample (0% inhibition).
(§5) The SI is calculated based on F. C.
(§6) SI value of <1 in the formula indicates a synergism of the blended biocides exists.
(§7) The minimal targeted inhibition was set at 75%, meaning a coupon with at least 75% algal growth inhibition was considered as a pass.

The subject of assay [1] is Stichococcus bacillaris SAG 379-1a CCAP 379/1a. The assay is described as above. The assay is classed as cell-based. To be noted: 3 weeks; for Total conc: total biocide concentration in paint taken as minimum inhibitory concentration, pass level ≧75% inhibition, for zoxamide the maximum concentration tested, pass not reached. As to the method:
as §1, §2, §3, §4, §5, §6, §7

Where [2] appears, read: total conc 500 ppm in paint, visible algal growth vs blank.

A word on the % inhibition: it is the percentage by which the read-out fell short of the control. In general, inhibition refers to the drop in the measured response relative to a control, in per cent.

With `[O-][n+]1ccccc1[S][Zn][S]c1cccc[n+]1[O-]` [ZnPT, bis(2-pyridylthio)zinc 1,1′-dioxide], the Total conc (in the assay with Chlorella sp. ATCC 7516; in assay [1]) was 500 ppm each time. Further, the “% inhibition” value with Chlorella sp. ATCC 7516 (setting [2]) amounted to 90%; in assay [1] (setting [2]), 85%.

As for `CCC(C)(NC(=O)c1cc(Cl)c(C)c(Cl)c1)C(=O)CCl` (centres unmarked) [Zoxamide, 3,5-Dichloro-N-(3-chloro-1-ethyl-1-methyl-2-oxopropyl)-4-methylbenzamide], the inhibition at 5000 ppm in the assay on Chlorella sp. ATCC 7516 (504 h, total conc 5000 ppm in paint, visible algal growth vs blank) is 60%; in assay [1] (Stichococcus bacillaris, 504 h, total conc 5000 ppm in paint, visible algal growth vs blank), 45%. For the same compound, the Total conc (in the assay with Chlorella sp. ATCC 7516; in assay [1]) was 5000 ppm each time.
